Values quoted from earlier work as cited in patent US20240423898A1, “LONGEVITY EYE CREAM” (Wellbeam Consumer Health Intermediate, LLC, priority 2023, published 2024).

Columns and labels:
under-eye dark circles = conditions: in vivo
skin = conditions: topical application

| Structure (SMILES) | under-eye dark circles (under-eye dark circles) | improvement in lines and wrinkles, pigmentation, elasticity, firmness, and overall reduction in photo-damage (skin) | irritating effect on the skin (skin) |
| --- | --- | --- | --- |
| Cn1c(=O)c2c(ncn2C)n(C)c1=O [caffeine] | can reduce under-eye dark circles |  |  |
| C=C[C@@](C)(/C=C/c1ccc(O)cc1)CCC=C(C)C [bakuchiol] |  | significant improvement | no irritating effect on the skin |
